Biological target: T1, human ALK5 (Homo sapiens, UniProt P36897)
T1 construct: human ALK5 (recombinant TGF β1 N-term GST-tagged, 80-end); GST (N); purchased
T1 sequence (P36897 80-503 limits assumed): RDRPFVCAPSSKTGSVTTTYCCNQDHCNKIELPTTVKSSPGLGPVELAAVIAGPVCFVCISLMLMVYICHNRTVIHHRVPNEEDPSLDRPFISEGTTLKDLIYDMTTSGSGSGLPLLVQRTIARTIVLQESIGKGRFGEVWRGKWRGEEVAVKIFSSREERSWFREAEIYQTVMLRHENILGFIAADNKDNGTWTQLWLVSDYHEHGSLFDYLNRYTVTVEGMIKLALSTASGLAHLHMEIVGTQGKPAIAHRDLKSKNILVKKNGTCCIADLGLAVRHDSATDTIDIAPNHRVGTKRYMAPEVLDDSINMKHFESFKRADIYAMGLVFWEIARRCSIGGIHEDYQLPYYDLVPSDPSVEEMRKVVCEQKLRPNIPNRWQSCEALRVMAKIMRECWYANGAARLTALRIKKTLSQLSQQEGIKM
Test: ADP-GLO Kinases assay of ALK5 enzymatic activity
Format: biochemical
Details: purified recombinant human ALK5, TGFβ1 peptide substrate, pIC50 converted to pKi by Cheng-Prusoff, high ATP protocol (15 μM) for very potent compounds, 25° C.
Description: The enzymatic activity of compounds of the present invention was monitored measuring the formation of ADP using the ADP-GLO Kinases assay. Following the incubation of the purified enzyme, a substrate and ATP, the produced ADP was converted into ATP, which in turn was converted into light by Ultra-Glo Luciferase. The luminescent signal positively correlated with ADP amount and kinase activity. […] Compound and ALK5 kinase were mixed and incubated for 15 mins. […] After an incubation of 120 min, the reaction was stopped, and ADP production detected with ADP-Glo kit according to manufacturer's indications. […] After an incubation of 60 min, the kinase reaction was stopped, and ADP production detected with ADP-Glo kit according to manufacturer's indications. All reaction and incubation steps were performed at 25° C. and the assays were performed in 384-well format and validated using a selection of reference compounds tested in 11-point concentration-response curve. […] Results were expressed as pIC50 (negative logarithm of IC50) and subsequently converted to pKi (negative logarithm of […]) using the Cheng-Prusoff equation. The higher the value of pKi, the greater the inhibition of ALK5 activity.

CN(CCC(O)C(F)(F)F)c1nnc(-c2cc(Cl)ccc2F)cc1Nc1ccnc(NC(=O)CN2C[C@@H]3C[C@H]2CN3C)c1 (mixture of isomers) [Example 130, N-(4-{[6-(5-chloro-2-fluorophenyl)-3-[methyl(4,4,4-trifluoro-3-hydroxybutyl)amino]pyridazin-4-yl]amino}pyridin-2-yl)-2-[(1S,4S)-5-methyl-2,5-diazabicyclo[2.2.1]heptan-2-yl]acetamide] and CN1CCN([C@H]2C[C@H](C(=O)Nc3cc(Nc4cc(-c5cc(Cl)ccc5F)nnc4N(C)C)ccn3)C2)CC1 (single isomer, unassigned) [Example 96, trans N-(4-{[6-(5-chloro-2-fluorophenyl)-3-(dimethylamino)pyridazin-4-yl]amino}pyridin-2-yl)-3-(4-methylpiperazin-1-yl)cyclobutane-1-carboxamide] cannot be ordered by Ki: at most 0.1 nM for the first, at most 0.1 nM for the second.

CN1CCCN(CC(=O)Nc2cc(Nc3cc(-c4cc(Cl)ccc4F)nnc3OC3CCOC3)ccn2)CC1 (racemic) [Example 72, N-(4-{[6-(5-chloro-2-fluorophenyl)-3-(oxolan-3-yloxy)pyridazin-4-yl]amino}pyridin-2-yl)-2-(4-methyl-1,4-diazepan-1-yl)acetamide] and CN1CCN(CCC(=O)Nc2cc(Nc3cc(-c4cc(Cl)ccc4F)nnc3OC3CCOC3)ccn2)CC1 (single isomer, unassigned) [Example 75, N-(4-{[6-(5-chloro-2-fluorophenyl)-3-(oxolan-3-yloxy)pyridazin-4-yl]amino}pyridin-2-yl)-3-(4-methylpiperazin-1-yl)propanamide] cannot be ordered by Ki: at most 0.1 nM for the first, at most 0.1 nM for the second.

First: CN1CCN(CCC(=O)Nc2cc(Nc3cc(-c4cc(Cl)ccc4F)nnc3N(C)C3CCOC3)ccn2)CC1 (racemic) [Example 105, N-(4-{[6-(5-chloro-2-fluorophenyl)-3-[methyl(oxolan-3-yl)amino]pyridazin-4-yl]amino}pyridin-2-yl)-3-(4-methylpiperazin-1-yl)propanamide]
Second: CN1CCN(CCC(=O)Nc2cc(Nc3cc(-c4cc(Cl)ccc4F)nnc3N(C)[C@H]3CCOC3)ccn2)CC1 (single isomer, unassigned) [Example 106, N-(4-{[6-(5-chloro-2-fluorophenyl)-3-[methyl(oxolan-3-yl)amino]pyridazin-4-yl]amino}pyridin-2-yl)-3-(4-methylpiperazin-1-yl)propanamide]
The Ki of the first is lower: at most 0.1 nM for the first, 0.126 to 0.316 nM for the second.

CN1CCN(CCC(=O)Nc2cc(Nc3cc(-c4cc(Cl)ccc4F)nnc3N(C)C[C@@]3(C)CCOC3=O)ccn2)CC1 (racemic) [Example 127, N-(4-{[6-(5-chloro-2-fluorophenyl)-3-{methyl[(3-methyl-2-oxooxolan-3-yl)methyl]amino}pyridazin-4-yl]amino}pyridin-2-yl)-3-(4-methylpiperazin-1-yl)propanamide] and COCC1(CN(C)c2nnc(-c3cc(Cl)ccc3F)cc2Nc2ccnc(NC(=O)CCN3CCN(C)CC3)c2)CCOC1=O (racemic) [Example 200, N-(4-{[6-(5-chloro-2-fluorophenyl)-3-({[3-(methoxymethyl)-2-oxooxolan-3-yl]methyl}(methyl)amino)pyridazin-4-yl]amino}pyridin-2-yl)-3-(4-methylpiperazin-1-yl)propanamide] cannot be ordered by Ki: at most 0.1 nM for the first, at most 0.1 nM for the second.

First: CN1CCN(CCC(=O)Nc2cc(Nc3cc(-c4cc(Cl)ccc4F)nnc3N(C)CC3(C)CCOC3=O)ncn2)CC1 (racemic) [Example 137, N-(6-{[6-(5-chloro-2-fluorophenyl)-3-{methyl[(3-methyl-2-oxooxolan-3-yl)methyl]amino}pyridazin-4-yl]amino}pyrimidin-4-yl)-3-(4-methylpiperazin-1-yl)propanamide]
Second: CN1CCN(CCC(=O)Nc2cc(Nc3cc(-c4cc(Cl)ccc4F)nnc3SC3(C)CCOC3=O)ccn2)CC1 (racemic) [Example 192, N-(4-{[6-(5-chloro-2-fluorophenyl)-3-[(3-methyl-2-oxooxolan-3-yl)sulfanyl]pyridazin-4-yl]amino}pyridin-2-yl)-3-(4-methylpiperazin-1-yl)propanamide]
The Ki of the first is lower: at most 0.1 nM for the first, 0.126 to 0.316 nM for the second.

CC(C)OC(=O)C1CCN1c1nnc(-c2cc(Cl)ccc2F)cc1Nc1ccnc(NC(=O)CCN2CCN(C)CC2)c1 (racemic) [Example 150, propan-2-yl 1-[6-(5-chloro-2-fluorophenyl)-4-({2-[3-(4-methylpiperazin-1-yl)propanamido]pyridin-4-yl}amino)pyridazin-3-yl]azetidine-2-carboxylate] and CC(C)OC(=O)C1CCN1c1nnc(-c2cc(Cl)ccc2F)cc1Nc1ccnc(NC(=O)CCN2C[C@@H](C)N[C@@H](C)C2)c1 (mixture of isomers) [Example 184, propan-2-yl 1-[6-(5-chloro-2-fluorophenyl)-4-({2-[3-(3,5-dimethylpiperazin-1-yl)propanamido]pyridin-4-yl}amino)pyridazin-3-yl]azetidine-2-carboxylate] fall in the same range of Ki: 0.398 to 3.16 nM for the first, 0.398 to 3.16 nM for the second.

O=C(Nc1cc(Nc2cc(-c3cc(Cl)ccc3F)nnc2SCCO)ccn1)C1CC(N2CCC(F)(F)C(CO)C2)C1 (racemic) [Example 170, N-(4-{[6-(5-chloro-2-fluorophenyl)-3-[(2-hydroxyethyl)sulfanyl]pyridazin-4-yl]amino}pyridin-2-yl)-3-[4,4-difluoro-3-(hydroxymethyl)piperidin-1-yl]cyclobutane-1-carboxamide] and CN1CCN([C@H]2C[C@@H](C(=O)Nc3cc(Nc4cc(-c5cc(Cl)ccc5F)nnc4SCCO)ccn3)C2)CC1CCF (mixture of isomers) [Example 172, Cis N-(4-{[6-(5-chloro-2-fluorophenyl)-3-[(2-hydroxyethyl)sulfanyl]pyridazin-4-yl]amino}pyridin-2-yl)-3-[3-(2-fluoroethyl)-4-methylpiperazin-1-yl]cyclobutane-1-carboxamide] cannot be ordered by Ki: at most 0.1 nM for the first, at most 0.1 nM for the second.

C[C@@H]1CN([C@H]2C[C@H](C(=O)Nc3cc(Nc4cc(-c5cc(Cl)ccc5F)nnc4N(C)CC4(C)CCOC4=O)ncn3)C2)C[C@H](C)N1 (mixture of isomers) [Example 185, N-(6-{[6-(5-chloro-2-fluorophenyl)-3-{methyl[(3-methyl-2-oxooxolan-3-yl)methyl]amino}pyridazin-4-yl]amino}pyrimidin-4-yl)-3-(3,5-dimethylpiperazin-1-yl)cyclobutane-1-carboxamide] and CN1CCN([C@H]2C[C@@H](C(=O)Nc3cc(Nc4cc(-c5cc(Cl)ccc5F)nnc4OC4CCOC4)ccn3)C2)CC1 (single isomer, unassigned) [Example 111, N-(4-{[6-(5-chloro-2-fluorophenyl)-3-(oxolan-3-yloxy)pyridazin-4-yl]amino}pyridin-2-yl)-3-(4-methylpiperazin-1-yl)cyclobutane-1-carboxamide] cannot be ordered by Ki: at most 0.1 nM for the first, at most 0.1 nM for the second.

CN1CCN(CCC(=O)Nc2cc(Nc3cc(-c4cc(Cl)ccc4F)nnc3SCC3CCCC(=O)O3)ccn2)CC1 (racemic) [Example 204, N-(4-{[6-(5-chloro-2-fluorophenyl)-3-{[(6-oxooxan-2-yl)methyl]sulfanyl}pyridazin-4-yl]amino}pyridin-2-yl)-3-(4-methylpiperazin-1-yl)propanamide] and CN1CCN(CCC(=O)Nc2cc(Nc3cc(-c4cc(Cl)ccc4F)nnc3SCCNC(=O)C3COC(=O)C3)ccn2)CC1 (racemic) [Example 205, N-(2-{[6-(5-chloro-2-fluorophenyl)-4-({2-[3-(4-methylpiperazin-1-yl)propanamido]pyridin-4-yl}amino)pyridazin-3-yl]sulfanyl}ethyl)-5-oxooxolane-3-carboxamide] cannot be ordered by Ki: at most 0.1 nM for the first, at most 0.1 nM for the second.

CN1CCCN(CC(=O)Nc2cc(Nc3cc(-c4cc(Cl)ccc4F)nnc3OC3CCOC3)ccn2)CC1 (single isomer, unassigned) [Example 73, N-(4-{[6-(5-chloro-2-fluorophenyl)-3-(oxolan-3-yloxy)pyridazin-4-yl]amino}pyridin-2-yl)-2-(4-methyl-1,4-diazepan-1-yl)acetamide] and CN1CCN([C@H]2C[C@H](C(=O)Nc3cc(Nc4cc(-c5cc(Cl)ccc5F)nnc4OC4CCOC4)ccn3)C2)CC1 (single isomer, unassigned) [Example 112, N-(4-{[6-(5-chloro-2-fluorophenyl)-3-(oxolan-3-yloxy)pyridazin-4-yl]amino}pyridin-2-yl)-3-(4-methylpiperazin-1-yl)cyclobutane-1-carboxamide] cannot be ordered by Ki: at most 0.1 nM for the first, at most 0.1 nM for the second.

For CN1CCN(CCC(=O)Nc2cc(Nc3cc(-c4cc(Cl)ccc4F)nnc3N(C)[C@@H]3CCOC3)ccn2)CC1 (single isomer, unassigned) [Example 107, N-(4-{[6-(5-chloro-2-fluorophenyl)-3-[methyl(oxolan-3-yl)amino]pyridazin-4-yl]amino}pyridin-2-yl)-3-(4-methylpiperazin-1-yl)propanamide], the Ki was at most 0.1 nM.

— patent publication US20250011299A1, “PYRIDAZINYL AMINO DERIVATIVES AS ALK5 INHIBITORS” (CHIESI FARMACEUTICI S.P.A., priority 2021, published 2025)
